Source: US20260152490A1, “METHYLLACTAM RING COMPOUND AND PHARMACEUTICAL USE THEREOF” (Japan Tobacco Inc., priority 2018, published 2026)

What was measured:
[1] = system: Salmonella typhimurium TA1535; test: Ames test (reverse mutation test), TA1535; type: cell-based; conditions: TA1535, with S9 mix, 2.0 μg/plate, positive control
From the text: (§1) Metabolite 1 and Metabolite C were each tested herein.
(§2) Two plates per treatment were used.

glucose-loaded SD rats [2] = test: OGTT (Oral Glucose Tolerance Test), Test Example 3; type: in vivo; conditions: male SD rat, 3 mg/kg orally, glucose load after 16 hours, to 120 minutes, compared to vehicle
Experimental: Vehicle (0.5% methylcellulose solution) or Compound 1, Compound A, or Compound B (3 mg/kg each) suspended in a 0.5% methylcellulose solution was orally administered in 5 mL/kg to an about 4-hour-fasted male SD rat (8-week old, Nihon Charles River K.K., 5 cases for each group).
Statistical analyses were based on Dunnett's multiple group test. The significance level was two-sided 5%.

glucose-loaded SD rats [3] = test: OGTT (Oral Glucose Tolerance Test), Test Example 2; type: in vivo; conditions: male SD rat, 1, 3, or 10 mg/kg orally, glucose load after 16 hours, to 120 minutes, compared to vehicle
Experimental: Vehicle (0.5% methylcellulose solution) or Compound 1 (1, 3, or 10 mg/kg) suspended in a 0.5% methylcellulose solution was orally administered in 5 mL/kg to an about 4-hour-fasted male SD rat (8-week old, Nihon Charles River K.K., 6 cases for each group).
Statistical analyses were based on Steel's multiple test. The significance level was two-sided 5%.

Escherichia coli WP2uvrA = test: Ames test (reverse mutation test), WP2uvrA; type: cell-based; conditions: without S9 mix, 0.01 μg/plate, positive control
From the text: as §1, §2

[4] = system: Salmonella typhimurium TA100; test: Ames test (reverse mutation test), TA100; type: cell-based; conditions: TA100 with S9 mix
From the text: as §1, §2

[5] = system: Salmonella typhimurium TA98; test: Ames test (reverse mutation test), TA98; type: cell-based; conditions: TA98 with S9 mix
From the text: as §1, §2

[6] = system: Salmonella typhimurium (TA98, TA1537, TA100, and TA1535) and Escherichia coli (WP2uvrA); test: Ames test (reverse mutation test), all tester strains: overall conclusion and precipitation; type: cell-based; design: key to Precipitation: * Growth inhibition; †: Precipitation
From the text: as §1, §2

Nc1ccc2cc3ccccc3cc2c1 [Compound 2AA, 2-Aminoanthracene] was tested, and the “Number of revertant colonies” value ([1]; Table 2) was 223 and the “Number of revertant colonies” value ([1]; Table 6) was 250.

With C[C@H]1C(=O)NC[C@@H]1C(=O)Nc1cc(-c2cc(F)cc(OC(C)(C)C)c2)n(C(F)(F)F)n1 [Compound 1, (3R,4R)—N-(5-(3-(tert-butoxy)-5-fluorophenyl)-1-(trifluoromethyl)-1H-pyrazol-3-yl)-4-methyl-5-oxopyrrolidine-3-carboxamide] the “blood glucose level after the glucose load (A AUC, % of Vehicle)” value (glucose-loaded SD rats [2]) was “significantly reduced the blood glucose level” and the “blood glucose level after the glucose load (Δ AUC, % of Vehicle)” value (glucose-loaded SD rats [3]) was “significantly reduced the blood glucose level”.

For NC(=O)C(=Cc1ccc([N+](=O)[O-])o1)c1ccco1 [AF-2, 2-(2-Furyl)-3-(5-nitro-2-furyl)acrylamide], the “Number of revertant colonies” value (Escherichia coli WP2uvrA; Table 4) was 69 and the “Number of revertant colonies” value (Escherichia coli WP2uvrA; Table 7) was 74.

CC(C)(C)Oc1cccc(-c2cc(N)nn2-c2ccccc2)c1 [Metabolite C] was tested, and the “potential to induce reverse mutations” value [4] was “had potential to induce reverse mutations”, the “potential to induce reverse mutations” value [5] was “had potential to induce reverse mutations” and the Precipitation ([6]; with S9 mix, 556 μg/plate, Table 6 (TA1537, TA1535, WP2uvrA)) was “†”. The Precipitation ([6]; with S9 mix, 1667 μg/plate, Table 6 (TA1537, TA1535, WP2uvrA)) was “†”, the Precipitation ([6]; with S9 mix, 5000 μg/plate, Table 6 (TA1537, TA1535, WP2uvrA)) was “†” and the Precipitation ([6]; without S9 mix, 556 μg/plate, Table 7 (all five strains)) was “†”. The Precipitation ([6]; without S9 mix, 1667 μg/plate, Table 7 (all five strains)) was “†” and the Precipitation ([6]; without S9 mix, 5000 μg/plate, Table 7 (all five strains)) was “†”.

With CC(C)(C)Oc1cc(F)cc(-c2cc(N)nn2C(F)(F)F)c1 [Metabolite 1] the “potential to induce reverse mutations” value ([6]; any of the bacterial tester strains, presence or absence of S9 mix) was “did not have potential to induce reverse mutations”, the Precipitation ([6]; with S9 mix, 556 μg/plate, Table 1 (TA98, TA100)) was “†” and the Precipitation ([6]; with S9 mix, 1667 μg/plate, Table 1 (TA98, TA100)) was “†”. For the same molecule, the Precipitation ([6]; with S9 mix, 5000 μg/plate, Table 1 (TA98, TA100)) was “†”, the Precipitation ([6]; with S9 mix, 5000 μg/plate, Table 2 (TA1537, TA1535, WP2uvrA)) was “†” and the Precipitation ([6]; without S9 mix, 5000 μg/plate, Table 4 (all five strains)) was “†”.
